# Measured values reported in US20230041563A1, “N-(1,3,4-OXADIAZOL-2-YL)ARYLCARBOXAMIDES OR SALTS THEREOF, PREPARATION METHODS, HERBICIDAL COMPOSITIONS AND USES THEREOF” (priority 2018, published 2023).
# Columns and labels:
# [1] = system: Echinochloa crusgali; test: Transplanted rice safety evaluation and weed control effect evaluation in rice field; type: in vivo
# From the text: (§1) Transplanted rice safety evaluation and weed control effect evaluation in rice field:
# (§2) Rice field soil was loaded into a 1/1,000,000 ha pot. The seeds of echinochloa crusgali, scirpus juncoides, Bidens tripartita, Sagittaria trifolia, Monochoria vaginalis and Leptochloa chinensis were sowed and gently covered with soil, then left to stand still in greenhouse in the state of 0.5-1 cm of water storage. The tuber of Sagittaria trifolia was planted in the next day or 2 days later. It was kept at 3-4 cm of water storage thereafter. The weeds were treated by dripping the WP or SC water diluents prepared according to the common preparation method of the compounds of the present invention with pipette homogeneously to achieve specified effective amount when echinochloa crusgali, scirpus juncoides, Bidens tripartita, Monochoria vaginalis and Leptochloa chinensis reached 0.5 leaf stage and Sagittaria trifolia reached the time point of primary leaf stage.
# (§3) The fertility condition of echinochloa crusgali, scirpus juncoides, Bidens tripartita, Leptochloa chinensis, Sagittaria trifolia and Monochoria vaginalis 14 days after the treatment of the compound of the invention and the fertility condition of rice 21 days after the treatment of the compound of the invention respectively with the naked eye. Evaluate the weed control effect with 0-5 activity standard level. Many compounds show excellent activity and selectivity.
# [2] = system: Monochoria vaginalis; test: as above; type: in vivo
# From the text: as §1, §2, §3
# [3] = system: Leptochloa chinensis; test: as above; type: in vivo
# From the text: as §1, §2, §3
# [4] = system: Sagittaria trifolia; test: as above; type: in vivo
# From the text: as §1, §2, §3
# [5] = system: weeds; test: Actual control effects and combined effects of mixtures of active ingredients (i) and (ii), stem-leaf treatment, Gowing method; type: in vivo; conditions: Cyperus difformis, 20 days
# [6] = system: Rice; test: Transplanted rice safety evaluation and weed control effect evaluation in rice field; type: in vivo, rice (japonica rice/Indica rice)
# Experimental: as §1
# In addition, the rice field soil that loaded into the 1/1,000,000 ha pot was leveled to keep water storage at 3-4 cm depth. The 3 leaf stage rice (japonica rice/Indica rice) was transplanted at 3 cm of transplanting depth the next day. The compound of the present invention was treated by the same way after 5 days of transplantation.
# as §3
# [7] = system: Setaria viridis; test: Weeding effect in post-emergence stage (greenhouse pot spray); type: in vivo; conditions: Table 3, dose 60 g a.i./ha
# Outline: (§4)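 Post-emergence foliar spray on 2-3 leaf greenhouse pot plants at 15 to 500 g a.i./ha with methyl oleate emulsifiable concentrate (1.5 liter/ha) added; growth control by fresh weight after 3 weeks.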
# [8] = system: Abutilon theophrasti; test: as above; type: in vivo
# Outline: as §4
# [9] = system: Digitaria sanguinalis; test: as above; type: in vivo
# Outline: as §4
# [10] = system: Echinochloa crusgalli; test: as above; type: in vivo
# Outline: as §4
# [11] = system: Japonica rice (Huaidao No. 5); test: Safety test of control experiments on rice; type: in vivo; conditions: Dose 250 g a.i./ha
# From the text: (§5) The activity level criteria for plant damage (i.e., growth control rate) are as follows: Comparative Experiments: [table]
# [12] = system: Indica rice (Huanghuazhan); test: Safety test of control experiments on rice; type: in vivo; conditions: Dose 250 g a.i./ha
# From the text: as §5
# [13] = system: Stellaria media; test: Weeding effect in post-emergence stage (greenhouse pot spray); type: in vivo
# Outline: as §4
# [14] = system: Amaranthus retroflexus; test: as above; type: in vivo
# Outline: as §4
# [15] = system: Scirpus juncoides; test: Transplanted rice safety evaluation and weed control effect evaluation in rice field; type: in vivo; conditions: Table 7, dose 125 g a.i./ha, 14 days after treatment
# From the text: as §1, §2, §3
# [16] = system: rice and Echinochloa crusgali; test: Herbicide selection index between rice and Echinochloa crusgali; type: in vivo; conditions: average dose causing 10% phytotoxicity to rice divided by average dose causing 90% control efficiency to Echinochloa crusgali
# [17] = Table 7, dose 125 g a.i./ha, 14 days after treatment
smiles,measurement,setting,value
"COc1cnc(OC)n2nc(NS(=O)(=O)c3c(OCC(F)F)cccc3C(F)(F)F)nc12 [Penoxsulam, reference compound]",Echinochloa crusgali (activity level),"[1]; Table 8, 30 g a.i./ha",0 (Level 0: growth control rate is less than 5%)
same,Monochoria vaginalis (activity level),"[2]; Table 8, 30 g a.i./ha",1 (Level 1: growth control rate is greater than or equal to 5% and less than 20%)
same,Leptochloa chinensis (activity level),"[3]; Table 8, 30 g a.i./ha",1 (Level 1: growth control rate is greater than or equal to 5% and less than 20%)
same,Sagittaria trifolia (activity level),"[4]; Table 8, 30 g a.i./ha",0 (Level 0: growth control rate is less than 5%)
same,pest or weed control at 15 g/ha,"[5]; 480 h, (ii) 1 g a.i./mu, stem-leaf treatment, read-out: Control effect of (ii) alone at corresponding dose",66.4%
same,pest or weed control at 27 g/ha,"[5]; 480 h, (ii) 1.8 g a.i./mu, read-out: Control effect of (ii) alone at corresponding dose",80.2%
same,Control effect of (ii) alone at corresponding dose,[5]; (ii) 1 g a.i./mu,66.4%
Cc1nnc(NC(=O)c2ccc(C(F)(F)F)c([S@@+]([O-])CC(C)C)c2F)o1 [1-20 (R-configuration)],Echinochloa crusgali (activity level),"[1]; Table 8, dose 60 g a.i./ha",5 (Level 5: growth control rate is above 85%)
same,Monochoria vaginalis (activity level),"[2]; Table 8, dose 60 g a.i./ha",5 (Level 5: growth control rate is above 85%)
same,Leptochloa chinensis (activity level),"[3]; Table 8, dose 60 g a.i./ha",5 (Level 5: growth control rate is above 85%)
same,Sagittaria trifolia (activity level),"[4]; Table 8, dose 60 g a.i./ha",5 (Level 5: growth control rate is above 85%)
same,Rice (safety level),"[6]; Table 8, dose 60 g a.i./ha",0 (Level 0: growth control rate is less than 5%)
CC[S+]([O-])c1c(C(F)(F)F)ccc(C(=O)Nc2nnc(C)o2)c1F (stereo not drawn) [Compound 1-5],Setaria viridis (activity level),[7],5 (Level 5: growth control rate is above 85%)
same,Abutilion theophrasti (activity level),"[8]; Table 2, dose 60 g a.i./ha",5 (Level 5: growth control rate is above 85%)
same,Abutilion theophrasti (activity level),"[8]; Table 2, dose 125 g a.i./ha",5 (Level 5: growth control rate is above 85%)
same,Abutilon theophrasti (activity level),"[8]; Table 3, dose 60 g a.i./ha",5 (Level 5: growth control rate is above 85%)
same,Digitaria sanguinalis (activity level),"[9]; Table 2, dose 60 g a.i./ha",5 (Level 5: growth control rate is above 85%)
same,Digitaria sanguinalis (activity level),"[9]; Table 2, dose 125 g a.i./ha",5 (Level 5: growth control rate is above 85%)
same,Digitaria sanguinahs (activity level),"[9]; Table 3, dose 60 g a.i./ha",5 (Level 5: growth control rate is above 85%)
same,Echinochloa crusgah (activity level),"[10]; Table 2, dose 60 g a.i./ha",5 (Level 5: growth control rate is above 85%)
same,Echinochloa crusgah (activity level),"[10]; Table 2, dose 125 g a.i./ha",5 (Level 5: growth control rate is above 85%)
same,Echinochloa crusgali (activity level),"[10]; Table 3, dose 60 g a.i./ha",5 (Level 5: growth control rate is above 85%)
same,Japonica rice (Huaidao No. 5) (plant damage level),[11],0 (Level 0: growth control rate is less than 5%)
same,Indica rice (Huanghuazhan) (plant damage level),[12],0 (Level 0: growth control rate is less than 5%)
same,Stellaria media (activity level),"[13]; Table 2, dose 60 g a.i./ha",5 (Level 5: growth control rate is above 85%)
same,Stellaria media (activity level),"[13]; Table 2, dose 125 g a.i./ha",5 (Level 5: growth control rate is above 85%)
same,Amaranthus retroflexus (activity level),"[14]; Table 2, dose 60 g a.i./ha",5 (Level 5: growth control rate is above 85%)
same,Amaranthus retroflexus (activity level),"[14]; Table 2, dose 125 g a.i./ha",5 (Level 5: growth control rate is above 85%)
same,Echinochloa crusgali (activity level),[1]; [17],5 (Level 5: growth control rate is above 85%)
same,Monochoria vaginalis (activity level),[2]; [17],5 (Level 5: growth control rate is above 85%)
same,Scirpus juncoides (activity level),[15],5 (Level 5: growth control rate is above 85%)
same,Selection index between rice and Echinochloa crusgali,[16],>5
same,Rice (safety level),"[6]; Table 7, dose 125 g a.i./ha, 21 days after treatment",0 (Level 0: growth control rate is less than 5%)
